Experimental data reported in US8952024B2, “Herbicidal pyrimidone derivatives” (E I du Pont de Nemours and Company, priority 2009, dated 2015).

Assays:
Experiment in all cases: Test B pre-/postemergence plant response
Type in all cases: in vivo
[1] = test system: bermudagrass (Cynodon dactylon); conditions: for Plant response rating, Bermudagrass: Postemergence; for Bermudagrass plant response rating (0 to 100 scale): postemergence, 0 is no effect, 100 is complete control
How it was run: (§1)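 Greenhouse herbicide screen. Pre- and postemergence (1- to 4-leaf) spray of compound in solvent/surfactant mixture; loam–sand soil for pre, peat/vermiculite medium for post. Visual control rating 0–100 at 13 to 15 days after treatment.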

[2] = test system: goosegrass (Eleusine indica); conditions: Postemergence
How it was run: as §1

[3] = test system: green foxtail (Setaria viridis); conditions: Postemergence
How it was run: as §1

[4] = test system: johnsongrass (Sorghum halepense); conditions: Postemergence
How it was run: as §1

kochia (Kochia scoparia) = conditions: Postemergence
How it was run: as §1

[5] = test system: lambsquarters (Chenopodium album); conditions: Postemergence
How it was run: as §1

[6] = test system: large crabgrass (Digitaria sanguinalis); conditions: Postemergence
How it was run: as §1

soybean (Glycine max) = conditions: Postemergence
How it was run: as §1

[7] = test system: velvetleaf (Abutilon theophrasti); conditions: Postemergence
How it was run: as §1

[8] = test system: wheat (Triticum aestivum); conditions: Postemergence
How it was run: as §1

[9] = test system: woolly cupgrass (Eriochloa villosa); conditions: Postemergence
How it was run: as §1

[10] = test system: yellow nutsedge (Cyperus esculentus); conditions: Postemergence
How it was run: as §1

[11] = 31 g ai/ha, 0 to 100 scale (0 no effect, 100 complete control)
[12] = 62 g ai/ha, scale 0 to 100 (0 no effect, 100 complete control)
[13] = 125 g ai/ha, scale 0 to 100 (0 no effect, 100 complete control)
[14] = 250 g ai/ha, scale 0 to 100 (0 no effect, 100 complete control), 13 to 15 days

## Cc1cc(-n2c(-c3cccc(F)c3)ncc(C(=O)C3=C(O)CCCC3=O)c2=O)ccc1F [Compound 191]
[1]; [11]
  Plant response rating, Bermudagrass: 100
[1]; [12]
  Plant response rating, Bermudagrass: 100
[1]; [13]
  Plant response rating, Bermudagrass: 100
[1]; [14]
  Plant response rating, Bermudagrass: 100
[2]; [11]
  Plant response rating, Goosegrass: 95
[2]; [12]
  Plant response rating, Goosegrass: 98
[2]; [13]
  Plant response rating, Goosegrass: 100
[2]; [14]
  Plant response rating, Goosegrass: 100
[3]; [11]
  Plant response rating, Foxtail, Green: 40
[3]; [12]
  Plant response rating, Foxtail, Green: 55
[3]; [13]
  Plant response rating, Foxtail, Green: 80
[3]; [14]
  Plant response rating, Foxtail, Green: 98
[4]; [11]
  Plant response rating, Johnsongrass: 70
[4]; [12]
  Plant response rating, Johnsongrass: 100
[4]; [13]
  Plant response rating, Johnsongrass: 100
[4]; [14]
  Plant response rating, Johnsongrass: 100
Kochia (Kochia scoparia); [11]
  Plant response rating, Kochia: 5
Kochia (Kochia scoparia); [12]
  Plant response rating, Kochia: 10
Kochia (Kochia scoparia); [13]
  Plant response rating, Kochia: 25
Kochia (Kochia scoparia); [14]
  Plant response rating, Kochia: 35
[5]; [11]
  Plant response rating, Lambsquarters: 75
[5]; [12]
  Plant response rating, Lambsquarters: 80
[5]; [13]
  Plant response rating, Lambsquarters: 98
[5]; [14]
  Plant response rating, Lambsquarters: 100
[6]; [11]
  Plant response rating, Crabgrass, Large: 85
[6]; [12]
  Plant response rating, Crabgrass, Large: 100
[6]; [13]
  Plant response rating, Crabgrass, Large: 100
[6]; [14]
  Plant response rating, Crabgrass, Large: 100
Soybean (Glycine max); [11]
  Plant response rating, Soybean: 90
Soybean (Glycine max); [12]
  Plant response rating, Soybean: 95
Soybean (Glycine max); [13]
  Plant response rating, Soybean: 100
Soybean (Glycine max); [14]
  Plant response rating, Soybean: 100
[7]; [11]
  Plant response rating, Velvetleaf: 75
[7]; [12]
  Plant response rating, Velvetleaf: 80
[7]; [13]
  Plant response rating, Velvetleaf: 90
[7]; [14]
  Plant response rating, Velvetleaf: 100
[8]; [11]
  Plant response rating, Wheat: 35
[8]; [12]
  Plant response rating, Wheat: 40
[8]; [13]
  Plant response rating, Wheat: 55
[8]; [14]
  Plant response rating, Wheat: 65
[9]; [11]
  Plant response rating, Cupgrass, Woolly: 85
[9]; [12]
  Plant response rating, Cupgrass, Woolly: 90
[9]; [13]
  Plant response rating, Cupgrass, Woolly: 90
[9]; [14]
  Plant response rating, Cupgrass, Woolly: 98
[10]; [11]
  Plant response rating, Nutsedge, Yellow: 40
[10]; [12]
  Plant response rating, Nutsedge, Yellow: 40
[10]; [13]
  Plant response rating, Nutsedge, Yellow: 55
[10]; [14]
  Plant response rating, Nutsedge, Yellow: 70

## CCCn1c(-c2cccc(Cl)c2)ncc(C(=O)C2=C(O)CCCC2=O)c1=O [Compound 190]
[1]; 62 g ai/ha, 13 to 15 days
  Bermudagrass plant response rating (0 to 100 scale): 100
[1]; [11]
  Plant response rating, Bermudagrass: 98
[1]; [13]
  Plant response rating, Bermudagrass: 100
[1]; [14]
  Plant response rating, Bermudagrass: 100
[2]; [11]
  Plant response rating, Goosegrass: 70
[2]; [13]
  Plant response rating, Goosegrass: 80
[2]; [14]
  Plant response rating, Goosegrass: 98
[3]; [11]
  Plant response rating, Foxtail, Green: 25
[3]; [13]
  Plant response rating, Foxtail, Green: 45
[3]; [14]
  Plant response rating, Foxtail, Green: 70
[4]; [11]
  Plant response rating, Johnsongrass: 60
[4]; [13]
  Plant response rating, Johnsongrass: 75
[4]; [14]
  Plant response rating, Johnsongrass: 80
Kochia (Kochia scoparia); [11]
  Plant response rating, Kochia: 0
Kochia (Kochia scoparia); [13]
  Plant response rating, Kochia: 98
Kochia (Kochia scoparia); [14]
  Plant response rating, Kochia: 98
[5]; [11]
  Plant response rating, Lambsquarters: 80
[5]; [13]
  Plant response rating, Lambsquarters: 100
[5]; [14]
  Plant response rating, Lambsquarters: 100
[6]; [11]
  Plant response rating, Crabgrass, Large: 60
[6]; [13]
  Plant response rating, Crabgrass, Large: 80
[6]; [14]
  Plant response rating, Crabgrass, Large: 90
Soybean (Glycine max); [11]
  Plant response rating, Soybean: 80
Soybean (Glycine max); [13]
  Plant response rating, Soybean: 95
Soybean (Glycine max); [14]
  Plant response rating, Soybean: 98
[7]; [11]
  Plant response rating, Velvetleaf: 100
[7]; [13]
  Plant response rating, Velvetleaf: 100
[7]; [14]
  Plant response rating, Velvetleaf: 100
[8]; [11]
  Plant response rating, Wheat: 0
[8]; [13]
  Plant response rating, Wheat: 30
[8]; [14]
  Plant response rating, Wheat: 30
[9]; [11]
  Plant response rating, Cupgrass, Woolly: 75
[9]; [13]
  Plant response rating, Cupgrass, Woolly: 80
[9]; [14]
  Plant response rating, Cupgrass, Woolly: 85
[10]; [11]
  Plant response rating, Nutsedge, Yellow: 35
[10]; [13]
  Plant response rating, Nutsedge, Yellow: 65
[10]; [14]
  Plant response rating, Nutsedge, Yellow: 75

## Cc1ccc(Cl)cc1-n1c(-c2cccc(F)c2)ncc(C(=O)C2=C(O)CCCC2=O)c1=O [Compound 184]
[1]; 62 g ai/ha, 13 to 15 days
  Bermudagrass plant response rating (0 to 100 scale): 100
[1]; [11]
  Plant response rating, Bermudagrass: 98
[1]; [13]
  Plant response rating, Bermudagrass: 100
[1]; [14]
  Plant response rating, Bermudagrass: 100
[2]; [11]
  Plant response rating, Goosegrass: 100
[2]; [13]
  Plant response rating, Goosegrass: 100
[2]; [14]
  Plant response rating, Goosegrass: 100
[3]; [11]
  Plant response rating, Foxtail, Green: 30
[3]; [13]
  Plant response rating, Foxtail, Green: 85
[3]; [14]
  Plant response rating, Foxtail, Green: 98
[4]; [11]
  Plant response rating, Johnsongrass: 100
[4]; [13]
  Plant response rating, Johnsongrass: 100
[4]; [14]
  Plant response rating, Johnsongrass: 100
Kochia (Kochia scoparia); [11]
  Plant response rating, Kochia: 0
Kochia (Kochia scoparia); [13]
  Plant response rating, Kochia: 5
Kochia (Kochia scoparia); [14]
  Plant response rating, Kochia: 10
[5]; [11]
  Plant response rating, Lambsquarters: 80
[5]; [13]
  Plant response rating, Lambsquarters: 100
[5]; [14]
  Plant response rating, Lambsquarters: 100
[6]; [11]
  Plant response rating, Crabgrass, Large: 100
[6]; [13]
  Plant response rating, Crabgrass, Large: 100
[6]; [14]
  Plant response rating, Crabgrass, Large: 100
Soybean (Glycine max); [11]
  Plant response rating, Soybean: 98
Soybean (Glycine max); [13]
  Plant response rating, Soybean: 100
Soybean (Glycine max); [14]
  Plant response rating, Soybean: 100
[7]; [11]
  Plant response rating, Velvetleaf: 85
[7]; [13]
  Plant response rating, Velvetleaf: 100
[7]; [14]
  Plant response rating, Velvetleaf: 100
[8]; [11]
  Plant response rating, Wheat: 30
[8]; [13]
  Plant response rating, Wheat: 55
[8]; [14]
  Plant response rating, Wheat: 60
[9]; [11]
  Plant response rating, Cupgrass, Woolly: 75
[9]; [13]
  Plant response rating, Cupgrass, Woolly: 100
[9]; [14]
  Plant response rating, Cupgrass, Woolly: 100
[10]; [11]
  Plant response rating, Nutsedge, Yellow: 35
[10]; [13]
  Plant response rating, Nutsedge, Yellow: 45
[10]; [14]
  Plant response rating, Nutsedge, Yellow: 75

## O=C1CCCC(O)=C1C(=O)c1cnc(-c2ccc(F)cc2)n(C2CCCCC2)c1=O [Compound 197]
[1]; [11]
  Plant response rating, Bermudagrass: 95
[1]; [12]
  Plant response rating, Bermudagrass: 100
[1]; [13]
  Plant response rating, Bermudagrass: 100
[1]; [14]
  Plant response rating, Bermudagrass: 100
[2]; [11]
  Plant response rating, Goosegrass: 85
[2]; [12]
  Plant response rating, Goosegrass: 98
[2]; [13]
  Plant response rating, Goosegrass: 100
[2]; [14]
  Plant response rating, Goosegrass: 100
[3]; [11]
  Plant response rating, Foxtail, Green: 5
[3]; [12]
  Plant response rating, Foxtail, Green: 30
[3]; [13]
  Plant response rating, Foxtail, Green: 50
[3]; [14]
  Plant response rating, Foxtail, Green: 70
[4]; [11]
  Plant response rating, Johnsongrass: 70
[4]; [12]
  Plant response rating, Johnsongrass: 85
[4]; [13]
  Plant response rating, Johnsongrass: 95
[4]; [14]
  Plant response rating, Johnsongrass: 100
Kochia (Kochia scoparia); [11]
  Plant response rating, Kochia: 65
Kochia (Kochia scoparia); [12]
  Plant response rating, Kochia: 80
Kochia (Kochia scoparia); [13]
  Plant response rating, Kochia: 95
Kochia (Kochia scoparia); [14]
  Plant response rating, Kochia: 98
[5]; [11]
  Plant response rating, Lambsquarters: 95
[5]; [12]
  Plant response rating, Lambsquarters: 100
[5]; [13]
  Plant response rating, Lambsquarters: 100
[5]; [14]
  Plant response rating, Lambsquarters: 100
[6]; [11]
  Plant response rating, Crabgrass, Large: 75
[6]; [12]
  Plant response rating, Crabgrass, Large: 85
[6]; [13]
  Plant response rating, Crabgrass, Large: 98
[6]; [14]
  Plant response rating, Crabgrass, Large: 100
Soybean (Glycine max); [11]
  Plant response rating, Soybean: 98
Soybean (Glycine max); [12]
  Plant response rating, Soybean: 100
Soybean (Glycine max); [14]
  Plant response rating, Soybean: 100
[7]; [11]
  Plant response rating, Velvetleaf: 80
[7]; [12]
  Plant response rating, Velvetleaf: 80
[7]; [14]
  Plant response rating, Velvetleaf: 100
[8]; [11]
  Plant response rating, Wheat: 0
[8]; [12]
  Plant response rating, Wheat: 0
[8]; [14]
  Plant response rating, Wheat: 40
[9]; [11]
  Plant response rating, Cupgrass, Woolly: 70
[9]; [12]
  Plant response rating, Cupgrass, Woolly: 85
[9]; [13]
  Plant response rating, Cupgrass, Woolly: 90
[9]; [14]
  Plant response rating, Cupgrass, Woolly: 98
[10]; [11]
  Plant response rating, Nutsedge, Yellow: 45
[10]; [12]
  Plant response rating, Nutsedge, Yellow: 55
[10]; [13]
  Plant response rating, Nutsedge, Yellow: 65
[10]; [14]
  Plant response rating, Nutsedge, Yellow: 75
